Test results published in patent US6166025A, “Pharmaceutical compositions containing eletriptran hemisulphate and caffeine” (Pfizer Inc., priority 1997, dated 2000).

Assays:
Aqueous solubility = type: physicochemical; details: water, 4° C.
[1] = Stability of a solution in pH 8 aqueous buffer on standing for 12 weeks at 50° C.; type: physicochemical
[2] = aqueous solution; Higuchi et al. 1955; cited from earlier work

Row | solubility (Aqueous solubility) | number of degradation products detected by H.P.L.C. ([1]; H.P.L.C. techniques) | hydrolytic stability ([1]; aqueous solutions) | remaining at 2016 h ([1]; pH 8 aqueous buffer, 12 weeks at 50° C., read-out: eletriptan left (relative to the original weight)) | SMILES | effect of caffeine on hydrolytic degradation [2]
1 | > 100 mg/mL | At least five | hydrolytically unstable | < 85% | CN1CCC[C@@H]1Cc1c[nH]c2ccc(CCS(=O)(=O)c3ccccc3)cc12 [Eletriptan hemisulphate] | 
2 |  |  |  |  | CCOC(=O)c1ccc(N)cc1 [benzocaine] | substantially reduces the hydrolytic degradation
